From PubChem BioAssay AID210 (DTP/NCI, 2004)
Where “and” joins values, the source holds several entries; their conditions need not be identical. Equal entries are not always repeated. Toxic doses and inconclusive results are not listed.

System: CD2F1 mice, ip Colon 26 adenocarcinoma, median survival T/C
Experiment: NCI In Vivo Anticancer Drug Screen. Data for tumor model Colon 26 Adenocarcinoma (intraperitoneal) in CD2F1 (CDF1) mice
Conditions: endpoint: median survival time, higher = longer survival
Description: The antitumor activity of compounds was measured in mice bearing transplantable tumors. Survival or tumor size were measured and the results are expressed as the measurement made in the treated group (T) divided by the measurement made in the vehicle treated control group (C). The tumor model used in this assay is Colon 26 Adenocarcinoma (intraperitoneal) in CD2F1 (CDF1) mice

[1] = dose: 100.0 mg/kg/injection, schedule: Q04DX003 (ip), vehicle: saline
[2] = dose: 12.5 mg/kg/injection, schedule: Q04DX003 (ip), vehicle: saline

Question: Which results are given for `O=C(O)C1(C(=O)O)CCC1.[NH2-].[NH2-].[Pt+2]`?
Answer: T/C (dose: 5.85 mg/kg/injection, schedule: Q04DX003 (iv), vehicle: saline): 96 % of control; T/C (dose: 8.78 mg/kg/injection, schedule: Q04DX003 (iv), vehicle: saline): 102 % of control; T/C (dose: 10.0 mg/kg/injection, schedule: Q01DX004 (ip), vehicle: saline): 110 % of control; T/C (dose: 11.7 mg/kg/injection, schedule: Q01DX001 (ip), vehicle: saline): 105 % of control; T/C (dose: 13.2 mg/kg/injection, schedule: Q04DX003 (iv), vehicle: saline): 105 % of control; T/C (dose: 17.6 mg/kg/injection, schedule: Q01DX001 (ip), vehicle: saline): 102 % of control; T/C (dose: 17.6 mg/kg/injection, schedule: Q01DX001 (iv), vehicle: saline): 91 % of control; T/C (dose: 19.8 mg/kg/injection, schedule: Q04DX003 (ip), vehicle: saline): 171 % of control; T/C (dose: 19.8 mg/kg/injection, schedule: Q04DX003 (iv), vehicle: saline): 117 % of control; T/C (dose: 20.0 mg/kg/injection, schedule: Q01DX004 (ip), vehicle: saline): 225 % of control; T/C (dose: 25.0 mg/kg/injection, schedule: Q04DX003 (ip), vehicle: dextrose): 203 % of control; T/C (dose: 26.3 mg/kg/injection, schedule: Q01DX001 (ip), vehicle: saline): 109 % of control and 217 % of control; T/C (dose: 26.3 mg/kg/injection, schedule: Q01DX001 (iv), vehicle: saline): 118 % of control and 94 % of control; T/C (dose: 29.6 mg/kg/injection, schedule: Q04DX003 (ip), vehicle: saline): 225 % of control; T/C (dose: 29.6 mg/kg/injection, schedule: Q04DX003 (iv), vehicle: saline): 162 % of control; T/C (dose: 30.0 mg/kg/injection, schedule: Q04DX004 (iv), vehicle: other): 154 % of control; T/C (dose: 33.0 mg/kg/injection, schedule: Q04DX002 (iv), vehicle: other): 109 % of control; T/C (dose: 39.5 mg/kg/injection, schedule: Q01DX001 (ip), vehicle: saline): 168 % of control; T/C (dose: 39.5 mg/kg/injection, schedule: Q01DX001 (iv), vehicle: saline): 95 % of control; T/C (dose: 40.0 mg/kg/injection, schedule: Q01DX004 (ip), vehicle: saline): 380 % of control; T/C (dose: 44.0 mg/kg/injection, schedule: Q04DX004 (iv), vehicle: other): 226 % of control; T/C (dose: 44.4 mg/kg/injection, schedule: Q04DX003 (ip), vehicle: saline): 257 % of control; T/C (dose: 44.4 mg/kg/injection, schedule: Q04DX003 (iv), vehicle: saline): 188 % of control; T/C (dose: 50.0 mg/kg/injection, schedule: Q04DX003 (ip), vehicle: dextrose): 228 % of control; T/C (dose: 59.3 mg/kg/injection, schedule: Q01DX001 (ip), vehicle: saline): 217 % of control; T/C (dose: 59.3 mg/kg/injection, schedule: Q01DX001 (iv), vehicle: saline): 103 % of control and 118 % of control; T/C (dose: 60.0 mg/kg/injection, schedule: Q01DX004 (ip), vehicle: saline): 324 % of control; T/C (dose: 65.0 mg/kg/injection, schedule: Q04DX004 (iv), vehicle: other): 253 % of control; T/C (dose: 66.7 mg/kg/injection, schedule: Q04DX003 (ip), vehicle: saline): 151 % of control; T/C (dose: 87.0 mg/kg/injection, schedule: Q04DX002 (iv), vehicle: other): 183 % of control; T/C (dose: 88.9 mg/kg/injection, schedule: Q01DX001 (ip), vehicle: saline): 217 % of control and 257 % of control; T/C (dose: 88.9 mg/kg/injection, schedule: Q01DX001 (iv), vehicle: saline): 102 % of control; T/C [1]: 257 % of control; T/C (dose: 100.0 mg/kg/injection, schedule: Q04DX003 (iv), vehicle: saline): 168 % of control; T/C (dose: 133.0 mg/kg/injection, schedule: Q01DX001 (ip), vehicle: saline): 217 % of control and 257 % of control; T/C (dose: 133.0 mg/kg/injection, schedule: Q01DX001 (iv), vehicle: saline): 121 % of control and 257 % of control; T/C (dose: 200.0 mg/kg/injection, schedule: Q01DX001 (ip), vehicle: saline): 217 % of control and 257 % of control

Question: Which results are given for `CS(=O)(=O)OCCCNCCCOS(C)(=O)=O`?
Answer: T/C (dose: 18.75 mg/kg/injection, schedule: Q04DX003 (ip), vehicle: saline): 194 % of control; T/C (dose: 37.5 mg/kg/injection, schedule: Q04DX003 (ip), vehicle: saline): 241 % of control; T/C (dose: 75.0 mg/kg/injection, schedule: Q04DX003 (ip), vehicle: saline): 338 % of control; T/C (dose: 150.0 mg/kg/injection, schedule: Q04DX003 (ip), vehicle: saline): 338 % of control

Question: How did the T/C (dose: 30.0 mg/kg/injection, schedule: Q07DX003 (ip), vehicle: saline) turn out when `CN(Cc1cnc2nc(N)nc(N)c2n1)c1ccc(C(=O)N[C@@H](CCC(=O)O)C(=O)O)cc1` was run?
Answer: Its T/C is 105 % of control.

Question: What about the T/C (dose: 44.0 mg/kg/injection, schedule: Q07DX003 (ip), vehicle: saline) of the same compound?
Answer: The T/C was 88 % of control.

Question: And the T/C (dose: 44.0 mg/kg/injection, schedule: Q07DX003 (ip), vehicle: sodium bicarbonate)?
Answer: The T/C was 121 % of control.

Question: And the T/C (dose: 63.0 mg/kg/injection, schedule: Q07DX003 (ip), vehicle: saline)?
Answer: The T/C was 93 % of control.

Question: For `CC(=O)Oc1ccccc1C(=O)O`, which T/C (dose: 72.0 mg/kg/injection, schedule: Q04DX002 (ip), vehicle: saline with Tween-80) is on record?
Answer: The T/C was 89 % of control.

Question: Which T/C (dose: 25.0 mg/kg/injection, schedule: Q04DX003 (ip), vehicle: Klucel (hydroxypropylcellulose) (HPC)) does the source give for `[I][Hg][CH2]C1OCCOC1[CH2][Hg][I]` (configuration not stated) here?
Answer: The T/C was 103 % of control.

Question: And the T/C (dose: 50.0 mg/kg/injection, schedule: Q04DX003 (ip), vehicle: Klucel (hydroxypropylcellulose) (HPC))?
Answer: The T/C was 100 % of control.

Question: What does the source list for `CSC1SCC2C(=O)N(C)C(C(C)C)C(=O)OCC(NC(=O)c3cnc4ccccc4n3)C(=O)NC(C)C(=O)N(C)C1C(=O)N(C)C(C(C)C)C(=O)OCC(NC(=O)c1cnc3ccccc3n1)C(=O)NC(C)C(=O)N2C` (configuration not stated)?
Answer: T/C (dose: 25.0 micrograms/kg/injection, schedule: Q01DX004 (ip), vehicle: saline sonified): 87 % of control; T/C (dose: 100.0 micrograms/kg/injection, schedule: Q01DX004 (ip), vehicle: saline sonified): 86 % of control; T/C (dose: 100.0 micrograms/kg/injection, schedule: Q03DX002 (ip), vehicle: saline sonified): 94 % of control; T/C (dose: 150.0 micrograms/kg/injection, schedule: Q03DX002 (ip), vehicle: saline sonified): 90 % of control

Question: `N=C(N)Sc1ccccn1` was tested. Which T/C [2] did it give?
Answer: Its T/C is 94 % of control.

Question: What about the T/C (dose: 25.0 mg/kg/injection, schedule: Q04DX003 (ip), vehicle: saline) of the same compound?
Answer: The T/C was 101 % of control.

Question: What about the T/C (dose: 50.0 mg/kg/injection, schedule: Q04DX003 (ip), vehicle: saline) of the same compound?
Answer: Its T/C is 91 % of control.

Question: And the T/C [1]?
Answer: The T/C was 91 % of control.

Question: `OCCN1CCN(CC/C=C2/c3ccccc3Sc3ccc(C(F)(F)F)cc32)CC1` was tested. Which T/C (dose: 3.13 mg/kg/injection, schedule: Q04DX003 (ip), vehicle: saline) did it give?
Answer: The T/C was 98 % of control.

Question: And the T/C (dose: 6.25 mg/kg/injection, schedule: Q04DX003 (ip), vehicle: saline)?
Answer: Its T/C is 91 % of control.

Question: And the T/C [2]?
Answer: The T/C was 91 % of control.

Question: What does the source list for `NCCNc1ccc(NCCN)c2c1C(=O)c1ccccc1C2=O`?
Answer: T/C (dose: 1.5 mg/kg/injection, schedule: Q01DX009 (ip), vehicle: acid diluted with saline): 171 % of control; T/C (dose: 2.0 mg/kg/injection, schedule: Q01DX009 (ip), vehicle: acid diluted with saline): 164 % of control; T/C (dose: 3.0 mg/kg/injection, schedule: Q01DX009 (ip), vehicle: acid diluted with saline): 263 % of control; T/C (dose: 4.0 mg/kg/injection, schedule: Q01DX009 (ip), vehicle: acid diluted with saline): 175 % of control; T/C (dose: 6.0 mg/kg/injection, schedule: Q01DX009 (ip), vehicle: acid diluted with saline): 254 % of control; T/C (dose: 8.0 mg/kg/injection, schedule: Q01DX009 (ip), vehicle: acid diluted with saline): 213 % of control; T/C (dose: 12.0 mg/kg/injection, schedule: Q01DX009 (ip), vehicle: acid diluted with saline): 214 % of control; T/C (dose: 16.0 mg/kg/injection, schedule: Q01DX009 (ip), vehicle: acid diluted with saline): 227 % of control

Question: Which results are given for `CCC1(O)CC2CN(CCc3c([nH]c4ccccc34)C(C(=O)OC)(c3cc4c(cc3OC)N(C)C3C(O)(C(N)=O)C(O)C5(CC)C=CCN6CCC43C65)C2)C1` (configuration not stated) (tested in a mixture with another compound)?
Answer: T/C (dose: 0.13 mg/kg/injection, schedule: Q04DX002 (ip), vehicle: water): 101 % of control; T/C (dose: 0.25 mg/kg/injection, schedule: Q04DX002 (ip), vehicle: water): 103 % of control; T/C (dose: 0.5 mg/kg/injection, schedule: Q04DX002 (ip), vehicle: water): 104 % of control; T/C (dose: 1.0 mg/kg/injection, schedule: Q04DX002 (ip), vehicle: water): 113 % of control; T/C (dose: 2.0 mg/kg/injection, schedule: Q04DX002 (ip), vehicle: water): 118 % of control
